Experimental findings from patent US12121498B2 (priority 2018, dated 2024) are described below.

The term IC50 denotes the midpoint of a concentration-inhibition curve. Low values mean inhibition by little substance, high ones a need for much substance.

A short description of one data set: in vivo. The class given is in vivo, SD rats. Conditions: rats; for concentration at 5 min / concentration at 15 min / concentration at 30 min / concentration at 1 h / concentration at 2 h / concentration at 4 h: SD, rat, in vivo, iv, average, read-out: Drug concentrations in brain tissue; for concentration at 5 min: 5 min after administration; for concentration at 15 min: 15 min after administration; for concentration at 30 min: 30 min after administration; for concentration at 1 h: 1 h after administration; for concentration at 2 h: 2 h after administration; for concentration at 4 h: 4 h after administration. How it is done:
1. Comparative Assay for the Distribution of Compound XA-1-7 and Dipropofol (3,3′,5,5′-Tetraisopropyl Biphenyl-4,4′-Diol) in the Brain Tissue of Rats after Intravenous Administration
72 SD rats, each weighing 200 to 220 g, were randomly divided into 12 groups (6 per group at a time), and fasted for 12 hours before administration. Compound XA-1-7 or dipropofol was injected intravenously at a dose of 45 mg/kg, and the rats were sacrificed at 5 min, 15 min, 30 min, 1 h, 2 h, and 4 h after administration, immediately after which the brain tissue was removed, rinsed with ice-cold distilled water, blotted up, and cryopreserved at −40° C. The concentrations of Compound XA-1-7 or dipropofol in the brain tissue of rats at different time points after administration were measured by LC-MS/MS.

The target in data set [1] is GABAA, Chloride Channel, TBPS. The experiment in a line: Radioligand ([35S]TBPS)-receptor competitive binding assay for GABAA receptor. Also on record: species or system Rat. The conditions noted are these: for IC50: [35S]TBPS, test concentration 30, 10, 3, 1, 0.3 uM; for Affinity for the GABAA receptor: result in words, compared with dipropofol.

The structures appear in SMILES notation.

On to `CCCc1cc(-c2cc(C(C)C)c(O)c(C(C)C)c2)cc(CCC)c1O` [Compound 1, 3,5-diisopropyl-3′,5′-dipropyl-[1,1′-biphenyl]-4,4′-diol], for which, in “in vivo” (i.v. 45 mg/kg), the concentration at 5 min stood at 37600 ng/g, the concentration at 15 min turned out to be 39600 ng/g, the concentration at 30 min is 38100 ng/g and the concentration at 1 h worked out at 33900 ng/g. In addition, in the data set “in vivo” (i.v. 45 mg/kg), the concentration at 2 h was 24600 ng/g, the concentration at 4 h was 6870 ng/g, the “AUC0-4 h in the brain tissue relative to that of the dipropofol” value is “about 1.36 times” and the “Peak time of the concentration in the brain tissue” value stood at 15 min. Further, the “Concentration in the brain tissue relative to that of the dipropofol” value in “in vivo” (5 minutes after intravenous injection, 45 mg/kg) is reported as “about 3 times”. Further, the “Delivering speed into the brain and level in the brain compared with dipropofol” value in “in vivo” (intravenous administration at the same dosage, result in words) is on record as “significantly higher”. In addition, in data set [1], the IC50 was 1.82 µM and the “Affinity for the GABAA receptor” value is on record as “high affinity”.
Take `CCCc1cc(-c2cc(C(C)C)c(O)c(C(C)C)c2)cc(C(C)C)c1O` [Compound 2, 3,3′,5-triisopropyl-5′-propyl-biphenyl-4,4′-diol]: in data set [1], the IC50 was 2.11 µM and the “Affinity for the GABAA receptor” value is on record as “high affinity”.
For the molecule `CCCc1cc(-c2cc(CCC)c(O)c(C(C)C)c2)cc(CCC)c1O` [Compound 3, 3-isopropyl-3′,5,5′-tripropyl-biphenyl-4,4′-diol], in data set [1], the IC50 worked out at 2.69 µM and the “Affinity for the GABAA receptor” value is on record as “high affinity”.
For `CC(C)c1cc(-c2cc(C(C)C)c(O)c(C(C)C)c2)cc(C(C)C)c1O` [Dipropofol, 3,3′,5,5′-tetraisopropylbiphenyl-4,4′-diol, reference compound], in the data set “in vivo” (i.v. 45 mg/kg), the concentration at 5 min was determined as 12800 ng/g, the concentration at 15 min is 24100 ng/g, the concentration at 30 min is 32500 ng/g and the concentration at 1 h came out at 26600 ng/g. Besides, in “in vivo” (i.v. 45 mg/kg), the concentration at 2 h was 17900 ng/g, the concentration at 4 h amounted to 5520 ng/g and the “Peak time of the concentration in the brain tissue” value was 30 min. In data set [1], this molecule returned an IC50 of 2.06 µM.
